Measurements reported in patent US8263617B2, “Chromen-2-one derivatives and their use as monoamine neurotransmitter re-uptake inhibitors” (Neurosearch A/S, priority 2006, dated 2012).
Counter-ions that a name gives are not always drawn.

Columns and labels:
Type in all cases: biochemical
[1] = target: T1, reuptake of serotonine (5-HT) in synaptosomes (Rattus norvegicus, UniProt P31652); assay: Inhibition of 5-HT reuptake in synaptosomes; details: 3H-5-HT, read-out: 5-HT-uptake IC50
T1 construct: in synaptosomes as described in WO 97/16451; from tissue
Protocol: (§1) A number of compounds were tested for their ability to inhibit the reuptake of the monoamine neurotransmitters dopamine (DA), noradrenaline (NA) and serotonine (5-HT) in synaptosomes as described in WO 97/16451.
(§2) The test values are given as IC50 (the concentration (μM) of the test substance which inhibits the specific binding of ^3H-DA, ^3H-NA, or ^3H-5-HT by 50%).

[2] = target: T2, reuptake of noradrenaline (NA) in synaptosomes (Rattus norvegicus, UniProt Q63380); assay: Inhibition of NA reuptake in synaptosomes; details: 3H-NA, read-out: NA-uptake IC50
T2 construct: in synaptosomes as described in WO 97/16451; from tissue
Protocol: as §1, §2

[3] = target: T3, reuptake of dopamine (DA) in synaptosomes (Rattus norvegicus, UniProt P23977); assay: Inhibition of DA reuptake in synaptosomes; details: 3H-DA, read-out: DA-uptake IC50
T3 construct: in synaptosomes as described in WO 97/16451; from tissue
Protocol: as §1, §2

T2 sequence (Q63380 1-617): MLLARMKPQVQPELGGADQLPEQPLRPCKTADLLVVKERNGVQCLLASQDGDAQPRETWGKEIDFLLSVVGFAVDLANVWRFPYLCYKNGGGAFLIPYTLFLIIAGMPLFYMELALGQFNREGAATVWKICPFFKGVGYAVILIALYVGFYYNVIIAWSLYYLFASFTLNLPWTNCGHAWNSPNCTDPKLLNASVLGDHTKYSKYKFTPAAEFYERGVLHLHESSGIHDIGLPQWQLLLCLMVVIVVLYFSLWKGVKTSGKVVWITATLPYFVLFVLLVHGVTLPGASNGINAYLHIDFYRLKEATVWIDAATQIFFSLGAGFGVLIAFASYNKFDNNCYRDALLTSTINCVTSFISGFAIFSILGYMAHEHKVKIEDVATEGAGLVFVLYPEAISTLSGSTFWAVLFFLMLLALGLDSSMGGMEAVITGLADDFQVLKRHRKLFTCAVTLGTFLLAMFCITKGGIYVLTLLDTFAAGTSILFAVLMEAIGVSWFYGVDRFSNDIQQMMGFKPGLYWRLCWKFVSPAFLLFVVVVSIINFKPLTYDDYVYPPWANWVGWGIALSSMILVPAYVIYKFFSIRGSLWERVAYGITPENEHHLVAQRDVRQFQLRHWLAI
T1 sequence (P31652 whole entry): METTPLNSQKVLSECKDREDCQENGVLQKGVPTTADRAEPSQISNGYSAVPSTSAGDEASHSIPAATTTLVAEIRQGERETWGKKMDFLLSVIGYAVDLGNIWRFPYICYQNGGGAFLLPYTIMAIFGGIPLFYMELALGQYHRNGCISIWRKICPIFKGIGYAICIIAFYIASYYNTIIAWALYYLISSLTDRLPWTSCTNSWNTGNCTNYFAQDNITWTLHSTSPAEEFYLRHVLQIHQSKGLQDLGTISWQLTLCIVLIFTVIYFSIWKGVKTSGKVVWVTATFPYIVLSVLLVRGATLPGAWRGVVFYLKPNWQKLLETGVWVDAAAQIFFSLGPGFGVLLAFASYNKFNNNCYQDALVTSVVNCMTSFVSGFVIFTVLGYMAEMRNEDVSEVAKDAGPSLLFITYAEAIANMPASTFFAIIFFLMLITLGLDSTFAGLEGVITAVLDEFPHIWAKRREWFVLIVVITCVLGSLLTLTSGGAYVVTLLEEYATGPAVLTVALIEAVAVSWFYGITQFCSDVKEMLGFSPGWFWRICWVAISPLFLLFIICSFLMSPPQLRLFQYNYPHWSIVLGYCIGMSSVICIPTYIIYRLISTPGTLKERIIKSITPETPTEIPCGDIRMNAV
T3 sequence (P23977 whole entry): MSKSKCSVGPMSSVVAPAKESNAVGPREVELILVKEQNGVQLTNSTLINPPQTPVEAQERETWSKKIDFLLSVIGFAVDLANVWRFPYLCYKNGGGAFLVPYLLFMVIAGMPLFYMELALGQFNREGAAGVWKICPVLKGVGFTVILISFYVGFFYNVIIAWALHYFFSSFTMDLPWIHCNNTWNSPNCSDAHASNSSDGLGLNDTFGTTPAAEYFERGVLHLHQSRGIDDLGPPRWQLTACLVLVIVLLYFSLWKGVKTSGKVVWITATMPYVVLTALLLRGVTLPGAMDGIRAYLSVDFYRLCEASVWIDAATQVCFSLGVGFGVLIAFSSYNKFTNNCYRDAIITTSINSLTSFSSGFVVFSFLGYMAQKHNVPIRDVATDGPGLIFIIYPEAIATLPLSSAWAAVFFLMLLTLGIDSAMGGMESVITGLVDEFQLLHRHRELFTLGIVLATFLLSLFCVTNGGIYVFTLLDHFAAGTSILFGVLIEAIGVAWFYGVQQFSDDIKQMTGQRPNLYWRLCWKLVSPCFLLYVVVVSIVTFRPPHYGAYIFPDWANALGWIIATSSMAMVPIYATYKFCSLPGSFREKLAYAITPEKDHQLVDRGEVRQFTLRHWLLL

Compound | IC50 [1] [nM] | IC50 [2] [nM] | IC50 [3] [nM]
O=c1oc2cc(OC3CC4CCC(C3)N4)ccc2cc1-c1ccco1 [1st Compound of Method A, exo-7-[(1S,3S,5R)-(8-Aza-bicyclo[3.2.1]oct-3-yl)oxy]-3-furan-2-yl-chromen-2-one hydrochloric acid salt] | 7.7 | 4.3 | 34
O=c1oc2cc(OC3CC4CCC(C3)N4)ccc2cc1-c1ccoc1 [2nd Compound of Method A, exo-7-[(1S,3S,5R)-(8-Aza-bicyclo[3.2.1]oct-3-yl)oxy]-3-furan-3-yl-chromen-2-one hydrochloric acid salt] | 10 | 0.48 | 9.9
O=c1oc2cc(OC3CC4CCC(C3)N4)ccc2cc1-c1cc2ccccc2o1 [3rd Compound of Method A, exo-7-[(1S,3S,5R)-(8-Aza-bicyclo[3.2.1]oct-3-yl)oxy]-3-benzofuran-2-yl-chromen-2-one hydrochloric acid salt] | 9.1 | 840 | 700
